# Measured values published in US8093286B2, “Methods for treatment with bucindolol based on genetic targeting” (The Regents of the University of Colorado, a body corporate, priority 2004, dated 2012).
# Entries after “also recorded” stand apart in the source; their conditions may differ. Structures can show the parent of a compound that is named as a salt.
# What was measured:
# [1] = BEST trial, peripheral venous norepinephrine and haemodynamic changes; format: in vivo, human
# Method: (§1) Because of an initial delay in setting up the procedures, collection of blood samples for norepinephrine in all randomized patients began 6 months after trial initiation.
# (§2) Peripheral venous NE samples were drawn at baseline, 3 and 12 months by inserting a 21 gauge butterfly needle into an arm vein and placing the subject in a quiet room in a supine position for 30 minutes. The initial 3 ml of blood was discarded, and then 5 ml of blood was withdrawn and immediately transferred to pre-chilled 5 ml tubes containing EDTA. Within 30 min plasma was separated and frozen at −70° C. Sites shipped samples on dry ice to a central laboratory (LabCorp, Raritan, N.J.) every 3 mo, where the samples were stored at −85° C. and assayed within 3 weeks. NE was measured by HPLC-electrochemical detection using the Bio-Rad HPLC method (Bio-Rad Laboratories Hercules, Calif.). Quality control included re-measuring all samples with initial values of <200 pg/ml or >2000 pg/ml, from the 2nd stored tube; and routinely (every 20 samples) measuring known amounts.
# (§3) Means and standard deviations (SD) for continuous data, and proportions or percentages for categorical data are presented. T-tests or Wilcoxon rank sum tests were used for continuous data, and chi-square or Fisher's exact test for categorical data. An alpha level of 0.05 (2 tailed, unadjusted) was used to indicate statistical significance.
# [2] = test system: systemic venous norepinephrine; assay: as above; format: in vivo, human; details: for NE change @ 3 mos, mean ± SD: Bucindolol Inter subgroup (Δ NE −244.5, ≦ +145), hydrochloride
# Method: as §1, §2, §3
# [3] = test system: failing human right ventricular trabeculae; assay: contractile response of isolated right ventricular trabeculae from failing human hearts; details: hydrochloride
# Method: Nonfailing hearts were obtained from local potential organ donors whose hearts were not transplanted because of physical or ABO blood type incompatibility. Failing hearts were from patients with end-stage heart failure due to ischemic or non-ischemic dilated cardiomyopathies who underwent cardiac transplantation. The demographic characteristics of the hearts are provided in Results. The contractile response of isolated, field stimulated, human trabeculae was assessed as previously described {1755; a-c}. Trabeculae of uniform size (1 to 2×6 to 8 mm) were mounted in 80 ml muscle bath chambers in Tyrode's solution at pH 7.45 bubbled with 95% O2-5% CO2 at 36^0. After equilibration, a tension of 75% of Lmax was applied to each individual trabeculum. Field-stimulation by a 5-ms pulse at 10% above threshold was then applied, and after equilibration full dose-response curves to isoproterenol, bucindolol or xamoterol were performed using the indicated concentrations and application of increasing doses every 5 minutes. In experiments in which forskolin was used to enhance signal transduction {e,f}, 10^−6 M of this adenylyl cyclase activator was applied to the tissue baths 15-20 minutes prior to the performance of dose-response curves, and allowed to achieve stability of tension response. Systolic tension at each dose was calculated as the stimulated tension in mN/mm^2 minus baseline tension. The maximum tension, concentration of isoproterenol that produced 50% of the maximum developed tension (EC50) and curve slope were computed by nonlinear repeated measures analysis of covariance. […] Statistical methods were employed as described in Examples 3 and 4.
compound,measurement,setting,value
"CC(C)(Cc1c[nH]c2ccccc12)NCC(O)COc1ccccc1C#N (stereo not shown) [bucindolol, (2-{2-hydroxy-3{{2-(3-indolyl)-1,1-dimethylethyl}amino}propoxy}-benzonitrile hydrochloride)]",Change in LVEF @ 12 mos,[1]; Bucindolol Incr subgroup,7.1 ± 8.8 EFU
same,Change in LVEF @ 12 mos,[1]; Bucindolol Inter subgroup,7.3 ± 10.4 EFU
same,Change in LVEF @ 12 mos,[1]; Bucindolol Redxn subgroup,8.8 ± 9.2 EFU
same,decrease in norepinephrine relative to changes in the placebo group,[2]; 3 months,19%
same,decrease in norepinephrine relative to changes in the placebo group,[2]; 12 months,13%
same,average decrease in norepinephrine at 3 months,[2]; 153 bucindolol subjects at higher mortality risk with norepinephrine reduction,529 pg/mL
same,Change in SBP @ 12 mos,[2]; Bucindolol Incr subgroup,−0.9 ± 16.8 mm Hg
same,HR (heart rate) change @ 12 mos,[2]; Bucindolol Incr subgroup,−8.1 ± 14.6 BPM
same,Change in LVEF @ 3 mos,[2]; Bucindolol Inter subgroup,5.7 ± 7.9 EFU
same,Change in SBP @ 3 mos,[2]; Bucindolol Inter subgroup,−0.5 ± 15.7 mm Hg
same,Change in SBP @ 12 mos,[2]; Bucindolol Inter subgroup,0.7 ± 18.0 mm Hg
same,HR (heart rate) change @ 3 mos,[2]; Bucindolol Inter subgroup,−9.7 ± 12.4 BPM
same,HR (heart rate) change @ 12 mos,[2]; Bucindolol Inter subgroup,−7.9 ± 13.5 BPM
same,"NE change @ 3 mos, mean ± SD",[2]; n = 551,-44 pg/mL
same,"NE change @ 3 mos, mean ± SD","[2]; n = 551, listed as Bucindolol",-44 ± 103 pg/mL
same,"NE change @ 12 mos, mean ± SD","[2]; Bucindolol Inter subgroup, n = 551",17.5 ± 216 pg/mL
same,Change in SBP @ 3 mos,[2]; Bucindolol Redxn subgroup,−0.7 ± 18.2 mm Hg
same,Change in SBP @ 12 mos,[2]; Bucindolol Redxn subgroup,2.7 ± 20.1 mm Hg
same,proportion of bucindolol-treated patients with marked norepinephrine reduction at 3 months,[2]; NE reduction ≧244.5 pg/ml,18%
same,average reduction in norepinephrine at 3 months (SEM),[2]; α2c DEL 322-325 carriers,153 ± 57 pg/mL
same,average reduction in norepinephrine at 3 months (SEM),[2]; α2c WT/WT patients,50 ± 13 pg/mL
same,intrinsic sympathomimetic activity (increase in force),"[3]; failing hearts, with and without forskolin",no significant increase in force development; also recorded: no evidence of ISA
same,inotropic effect on systolic force (dose-response curve slope),"[3]; β1AR Arg/Arg, forskolin pretreatment",inverse agonist; also recorded: negative curve slope
same,inotropic effect on systolic force (dose-response curve slope),"[3]; β1AR Gly carriers, forskolin pretreatment",neutral antagonist; also recorded: not different from 0
same,inotropic effect on systolic force (dose-response curve slope),"[3]; β1AR Gly carriers, without forskolin",inverse agonist; also recorded: negative inotropic effect
